Assay results published in patent US20130039998A1, “COMPOSITIONS OF MODULATORS OF THE WNT/BETA-CATENIN PATHWAY AND BENZAMIDE AND/OR HYDROXAMIC ACID DERIVATIVES TO TREAT BIPOLAR DISORDER” (UNIVERSITY OF WASHINGTON, priority 2008, published 2013).
Entries after “also recorded” stand apart in the source; their conditions may differ.

How the values were obtained:
GSK-3 = settings: from Ring et al. 2003 / Cline et al. 2002, cited from earlier work; for EC50: read-out: half-maximal effective concentration [EC50]
[1] = tested on: pfuBARS control reporter (non-functional TCF elements), HEK-293T cells
From the text: (§1) To monitor Wnt/β-catenin signalling the beta-catenin activated reporter (BAR) system developed at the laboratory of Randall Moon, University of Washington, Seattle, Wash., was used. The BAR system contains a concatemer of twelve TCF (T-cell factor) response elements separated by unique five nucleotide linkers specifically designed to minimize recombination that can lead to loss of TCF binding sites. This series of TCF response elements is inserted upstream of Promega's minP minimal promoter completing a functional promoter that drives the transcription of firefly luciferase (pBARLS) along with a PGK promoter driving a puromycin selectable maker. These reporters were inserted between the LTRs (long terminal repeats) of a lentiviral transducing plasmid. […] The pfuBARS reporter is identical to their respective parent reporter with the exception that each TCF DNA binding element contains a two-base substitution conferring a non-functional element. The essentially identical nature of the control reporters provides the most optimal experimental control, as well as allowing for identical lentiviral titer production when generated side by side with the responsive reporter.
(§2) Cells were plated, treated, and the luciferase activity measured in a 384-well plate. The volume of culture media in each well prior to measuring luciferase activity was 40 μL. After incubation with compounds, 10 μL of Promega Firefly luciferase reagent was added using a liquid dispenser and incubated for 10 minutes at room temperature. Total luminescence was read on an Envision (Perkin Elmer) plate reader. Data was expressed relative to baseline of adding DMSO alone.

[2] = tested on: T1, class I and class II HDACs; assay: In vitro class I and class II HDAC inhibition; type: biochemical, human; settings: compared with valproate
T1 construct: other: HDAC1/2/3 together; other: compared with valproate
From the text: (§3) To measure the effects of compounds on HDAC activity, a homogenous, fluorimetric deacetylase assay miniaturized to 384-well plate format was used. To perform this assay, a buffered solution containing a recombinant human deacetylase was transferred to a microtiter plate using a robotic plate-filler.
(§4) Following compound transfer, a second buffered solution was transferred containing trypsin and a class-specific, tripeptide substrate (AcK-AMC) terminating in an acetyl-lysine, which is amide-coupled to 7-amino-4-methylcoumarin (AMC). Following substrate hydrolysis by the deacetylase, trypsin cleaves the terminal amide bond releasing AMC. With an excitation/emission maximum of 350-380/440-460 nm, AMC fluorescence is captured by a multilabel plate reader. For a kinetic version of the assay, fluorescence measurements was recorded every 0.5-5 minutes over 60 minutes. Data were plotted on a well-by-well basis to measure the slope of increasing fluorescence over time, corresponding to enzymatic activity. HDAC enzymes used were commercially-available (BPS Biosciences San Diego, Calif.).

[3] = tested on: Wnt/β-catenin signalling (TCF/LEF transcription), HEK-293T cells; assay: pBARLS beta-catenin activated reporter (TCF/LEF transcription) in HEK-293T cells; type: cell-based, human; settings: for activation of pBARLS reporter, compound alone (FIG. 3B) / activation of pBARLS reporter in the presence of lithium (FIG. 3B): HEK293T, dose response; for activation of pBARLS reporter in the presence of lithium: 25 μM compound plus lithium 10 mM; for activation of pBAR reporter (FIG. 1B): HEK-293T cells (human)
From the text: as §1, §2

[4] = tested on: Wnt/β-catenin signalling (TCF/LEF transcription), HT22 cells; assay: pBARLS beta-catenin activated reporter (TCF/LEF transcription) in HT22 cells; type: cell-based, mouse; settings: for activation of pBARLS reporter in the presence of lithium / activation of transcription of pBARLS reporter, compound alone: HT22, 24 hr; for activation of pBARLS reporter in the presence of lithium: 25 μM compound plus lithium 10 mM; for activation of transcription of pBARLS reporter, compound alone: lithium 10 mM, MS-275, CI-994, SAHA 25 μM; for activation of pBAR reporter (FIG. 1B): HT22 cells (mouse)
From the text: as §1, §2

HDAC1 = molecular target: T2, HDAC1 (Homo sapiens, UniProt Q13547); assay: Fluorimetric deacetylase assay, HDAC1; type: biochemical; settings: Class I; avg n = 2 with class-specific substrates
T2 construct: purchased BPS Biosciences

HDAC5 = molecular target: T3, HDAC5 (Homo sapiens, UniProt Q9UQL6); assay: Fluorimetric deacetylase assay, HDAC5; type: biochemical; settings: Class IIa
T3 construct: purchased BPS Biosciences

HDAC6 = HDAC6 (Homo sapiens, UniProt Q9UBN7); assay: Fluorimetric deacetylase assay, HDAC6; type: biochemical
From the text: as §3, §4

[5] = listed as Wnt3a conditioned media

HDAC6, sequence (Q9UBN7 whole entry): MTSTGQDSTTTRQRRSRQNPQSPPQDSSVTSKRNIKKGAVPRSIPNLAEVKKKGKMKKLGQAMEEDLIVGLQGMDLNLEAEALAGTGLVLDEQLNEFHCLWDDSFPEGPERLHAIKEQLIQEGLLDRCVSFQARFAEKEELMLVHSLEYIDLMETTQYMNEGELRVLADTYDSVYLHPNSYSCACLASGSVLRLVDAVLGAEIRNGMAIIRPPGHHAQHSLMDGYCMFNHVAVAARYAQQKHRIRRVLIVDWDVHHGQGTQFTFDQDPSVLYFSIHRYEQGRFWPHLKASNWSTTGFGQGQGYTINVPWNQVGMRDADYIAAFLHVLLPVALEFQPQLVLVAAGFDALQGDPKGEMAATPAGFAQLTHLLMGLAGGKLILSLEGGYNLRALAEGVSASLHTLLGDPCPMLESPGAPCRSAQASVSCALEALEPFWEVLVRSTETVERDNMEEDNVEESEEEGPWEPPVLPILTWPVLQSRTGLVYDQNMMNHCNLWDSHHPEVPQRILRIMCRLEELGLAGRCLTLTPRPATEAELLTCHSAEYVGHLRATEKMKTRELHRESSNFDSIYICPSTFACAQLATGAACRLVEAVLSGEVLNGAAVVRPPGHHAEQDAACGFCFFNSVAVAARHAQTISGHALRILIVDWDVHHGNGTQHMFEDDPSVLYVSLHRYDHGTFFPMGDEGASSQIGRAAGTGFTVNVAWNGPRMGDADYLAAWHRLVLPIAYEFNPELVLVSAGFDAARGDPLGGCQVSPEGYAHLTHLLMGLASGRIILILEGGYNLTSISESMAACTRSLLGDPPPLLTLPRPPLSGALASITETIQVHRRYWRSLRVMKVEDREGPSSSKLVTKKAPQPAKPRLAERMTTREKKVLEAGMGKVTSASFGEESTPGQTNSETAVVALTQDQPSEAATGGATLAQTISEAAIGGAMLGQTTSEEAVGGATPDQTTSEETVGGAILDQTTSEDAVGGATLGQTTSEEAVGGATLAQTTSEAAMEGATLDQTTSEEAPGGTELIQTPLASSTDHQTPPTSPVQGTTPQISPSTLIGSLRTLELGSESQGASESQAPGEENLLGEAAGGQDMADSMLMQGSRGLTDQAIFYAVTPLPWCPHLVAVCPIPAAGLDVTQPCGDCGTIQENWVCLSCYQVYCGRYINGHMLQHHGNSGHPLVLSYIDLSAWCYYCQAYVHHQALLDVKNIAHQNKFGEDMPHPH
T3 sequence (Q9UQL6 whole entry): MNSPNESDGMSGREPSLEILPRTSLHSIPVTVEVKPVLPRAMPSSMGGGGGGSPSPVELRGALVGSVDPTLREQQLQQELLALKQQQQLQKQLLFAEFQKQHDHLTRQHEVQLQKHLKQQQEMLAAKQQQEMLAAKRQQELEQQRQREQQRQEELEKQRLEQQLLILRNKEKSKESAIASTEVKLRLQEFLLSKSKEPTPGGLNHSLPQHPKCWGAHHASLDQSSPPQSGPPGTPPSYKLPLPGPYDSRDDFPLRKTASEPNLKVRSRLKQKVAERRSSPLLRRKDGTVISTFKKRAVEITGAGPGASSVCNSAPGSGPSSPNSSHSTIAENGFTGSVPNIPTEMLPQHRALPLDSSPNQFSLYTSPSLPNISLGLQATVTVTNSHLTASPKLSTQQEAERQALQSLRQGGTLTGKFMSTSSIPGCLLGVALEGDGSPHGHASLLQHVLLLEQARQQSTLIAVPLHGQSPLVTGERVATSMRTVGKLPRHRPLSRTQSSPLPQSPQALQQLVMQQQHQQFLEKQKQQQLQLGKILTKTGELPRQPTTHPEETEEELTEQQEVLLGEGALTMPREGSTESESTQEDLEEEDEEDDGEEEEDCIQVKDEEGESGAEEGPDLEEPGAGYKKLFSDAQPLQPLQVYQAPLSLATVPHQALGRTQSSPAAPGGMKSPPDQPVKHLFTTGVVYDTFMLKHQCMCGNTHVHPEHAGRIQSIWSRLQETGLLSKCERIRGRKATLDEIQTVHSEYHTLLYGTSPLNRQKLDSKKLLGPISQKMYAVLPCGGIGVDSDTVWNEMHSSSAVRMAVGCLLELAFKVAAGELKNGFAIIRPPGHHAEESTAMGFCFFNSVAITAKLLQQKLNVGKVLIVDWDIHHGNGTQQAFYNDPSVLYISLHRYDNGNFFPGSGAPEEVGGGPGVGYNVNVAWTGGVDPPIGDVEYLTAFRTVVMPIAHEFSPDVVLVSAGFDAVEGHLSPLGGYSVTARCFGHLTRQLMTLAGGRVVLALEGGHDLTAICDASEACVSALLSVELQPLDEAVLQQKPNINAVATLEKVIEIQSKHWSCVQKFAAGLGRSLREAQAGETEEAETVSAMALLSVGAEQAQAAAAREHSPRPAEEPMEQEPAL
T2 sequence (Q13547 whole entry): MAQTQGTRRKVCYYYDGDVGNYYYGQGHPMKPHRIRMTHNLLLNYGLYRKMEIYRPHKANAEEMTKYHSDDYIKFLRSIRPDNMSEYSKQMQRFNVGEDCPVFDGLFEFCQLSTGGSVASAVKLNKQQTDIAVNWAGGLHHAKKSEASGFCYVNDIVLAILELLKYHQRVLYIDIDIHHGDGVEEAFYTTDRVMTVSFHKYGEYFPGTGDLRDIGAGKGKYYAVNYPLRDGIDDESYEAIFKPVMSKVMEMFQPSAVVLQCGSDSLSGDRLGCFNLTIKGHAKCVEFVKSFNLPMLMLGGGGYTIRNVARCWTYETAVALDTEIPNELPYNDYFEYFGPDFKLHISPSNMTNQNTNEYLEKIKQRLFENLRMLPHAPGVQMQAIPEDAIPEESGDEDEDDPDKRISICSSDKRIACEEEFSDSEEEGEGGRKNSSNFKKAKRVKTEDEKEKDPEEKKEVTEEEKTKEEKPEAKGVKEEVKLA

For O=[N+]([O-])c1ccc(NCCNc2ncc(-c3ncc[nH]3)c(-c3ccc(Cl)cc3Cl)n2)nc1 [CHIR-837], the “selectivity for GSK-3” value (GSK-3) is listed as > 5,000 fold and the EC50 (GSK-3) is listed as 0.375 µM.

For CC(=O)Nc1ccc(C(=O)Nc2ccccc2N)cc1 [CI-994], the “activity in pfuBARS control reporter, compound alone” value [1] was “no activity”, the “activity in pfuBARS control reporter in the presence of lithium” value [1] was “no activity” and the “potency on class I HDACs in comparison to valproate” value [2] was “much more potent”.

With Nc1ccccc1NC(=O)c1ccc(CNC(=O)OCc2cccnc2)cc1 [MS-275] the “activation of pBARLS reporter, compound alone (FIG. 3B)” value ([3]; 24 hr, alone) was “activation on their own”, the “activation of pBARLS reporter in the presence of lithium (FIG. 3B)” value ([3]; 24 hr, lithium 10 mM) was “synergistic activation” and the “activation of pBARLS reporter in the presence of lithium” value ([3]; HEK-293T, 24 hr) was “strong synergistic activation of transcription; also recorded: strong synergy”. For the same compound, the “activation of transcription of pBARLS reporter, compound alone” value ([3]; HEK-293T, 24 hr, lithium 10 mM, MS-275, CI-994, SAHA 25 μM, alone) was “activated transcription of the reporter; also recorded: activate transcription on their own”, the “activation of pBARLS reporter in the presence of lithium” value [4] was “strong synergistic activation of transcription” and the “activation of transcription of pBARLS reporter, compound alone” value [4] was “partially capable of activating transcription; also recorded: capable of activating transcription on its own”. The “activity in pfuBARS control reporter, compound alone” value [1] was “no activity” and the “activity in pfuBARS control reporter in the presence of lithium” value [1] was “no activity”.

With O=C(CCCCCCC(=O)Nc1ccccc1)NO [SAHA] the “activation of pBARLS reporter in the presence of lithium” value ([3]; HEK-293T, 24 hr) was “strong synergistic activation of transcription; also recorded: strong synergy”, the “activation of pBARLS reporter in the presence of lithium” value [4] was “strong synergistic activation of transcription” and the “activation of transcription of pBARLS reporter, compound alone” value [4] was “unable to activate transcription”.

With Cc1[nH]c2ccccc2c1CCNCc1ccc(/C=C/C(=O)NO)cc1 [panobinostat] the “activation of pBARLS reporter, compound alone (FIG. 3B)” value ([3]; 24 hr, alone) was “activation on their own”, the “activation of pBARLS reporter in the presence of lithium (FIG. 3B)” value ([3]; 24 hr, lithium 10 mM) was “synergistic activation” and the “potency relative to SAHA (dose responses, FIG. 3)” value ([3]; pBARLS reporter dose response) was “more potent than SAHA”.

Work on CCCC(CCC)C(=O)O [valproate] yielded an IC50 (HDAC1) of 27 µM, an IC50 (HDAC5) of over 10000 µM and an IC50 (HDAC6) of over 10000 µM.

With Wnt3a the “activation of pBAR reporter (FIG. 1B)” value [3] was “activation”, the “activation of pBAR reporter (FIG. 1B)” value [3, 5] was “capable of responding” and the “activation of pBAR reporter (FIG. 1B)” value [4] was “activation”. The “activation of pBAR reporter (FIG. 1B)” value [4, 5] was “capable of responding”.
